Assay results as given in patent US8808979B2, “Methods related to liver enzyme induction as a predisposition for liver toxicity and diseases or disorders associated therewith” (priority 2008, dated 2014).

Tests used:
male rats = assay: Plasma metabolite profiling (GC-MS/LC-MS), markers for liver enzyme induction in male rats, 28-day gavage study; type: in vivo, rat; details: high dose
Protocol: (§1) A group of each 5 male and female rats was dosed once daily with the indicated compounds (see tables below) at 10 and 100 mg/kg body weight per gavage over 28 days. Additional groups of each 5 male and female animals served as controls. Before starting the treatment period, animals, which were 62-64 days old when supplied, were acclimatized to the housing and environmental conditions for 7 days. All animals of the animal population were kept under the same constant temperature (20-24±3° C.) and the same constant humidity (30-70%). Each animal of the animal population was kept in a separate cage. The animals of the animal population are fed ad libitum. The food to be used was be essentially free of chemical or microbial contaminants. Drinking water was also offered ad libitum. Accordingly, the water was be free of chemical and microbial contaminants as laid down in the European Drinking Water Directive 98/83/EG. The illumination period was 12 hours light followed by 12 hours darkness (12 hours light, from 6:00 to 18:00, and 12 hours darkness, from 18:00 to 6:00).
(§2) In the morning of day 7, 14, and 28, blood was taken from the retroorbital venous plexus from fasted anaesthetized animals. From each animal, 1 ml of blood was collected with EDTA as anticoagulant. The samples were be centrifuged for generation of plasma. All plasma samples were covered with a N2 atmosphere and then stored at—80° C. until analysis.
(§3) For mass spectrometry-based metabolite profiling analyses plasma samples were extracted and a polar and a non-polar fraction was obtained. For GC-MS analysis, the non-polar fraction was treated with methanol under acidic conditions to yield the fatty acid methyl esters. Both fractions were further derivatised with O-methyl-hydroxyamine hydrochloride and pyridine to convert oxo-groups to O-methyloximes and subsequently with a silylating agent before analysis. In LC-MS analysis, both fractions were reconstituted in appropriate solvent mixtures. HPLC was performed by gradient elution on reversed phase separation columns. For mass spectrometric detection metanomics proprietary technology was applied which allows target and high sensitivity MRM (Multiple Reaction Monitoring) profiling in parallel to a full screen analysis.
(§4) Following comprehensive analytical validation steps, the data for each analyte were normalized against data from pool samples. These samples were run in parallel through the whole process to account for process variability. The significance of treatment group values specific for sex, dose group and metabolite was determined by comparing means of the treated groups to the means of the respective untreated control groups using Student's t-test. Normalized treatment group values and their significance were fed into a database for further statistics and data mining processes.
(§5) The changes of the group of plasma metabolites being indicative for liver enzyme induction after treatment of the rats are shown in the following tables: […]

female rats = assay: Plasma metabolite profiling (GC-MS/LC-MS), markers for liver enzyme induction in female rats, 28-day gavage study; type: in vivo, rat; details: high dose
Protocol: as §1, §2, §3, §4, §5

What does the source list for `Clc1cc(Cl)c(Cl)c(Cl)c1Cl` [Pentachlorobenzene]?
1,2-Dioleoyl-sn-glycero-3-phosphatidyl-L-serine, change of plasma metabolite, mh7 (male rats; day 7, relative to controls): 1.27; Behenic acid (C22:0), change of plasma metabolite, mh7 (male rats; day 7, relative to controls): 1.43; Cholesterol, change of plasma metabolite, mh7 (male rats; day 7, relative to controls): 1.31; Eicosapentanoic acid, change of plasma metabolite, mh7 (male rats; day 7, relative to controls): 1.4; Galactose, lipid fraction, change of plasma metabolite, mh7 (male rats; day 7, relative to controls): 1.37; Lignoceric acid (C24:0), change of plasma metabolite, mh7 (male rats; day 7, relative to controls): 1.32; Nervonic acid (C24:1), change of plasma metabolite, mh7 (male rats; day 7, relative to controls): 1.30; Phosphatidylcholine (C18:0/C18:2), change of plasma metabolite, mh7 (male rats; day 7, relative to controls): 1.01; Phosphatidylcholine (C18:0/C22:6), change of plasma metabolite, mh7 (male rats; day 7, relative to controls): 1.12; Sphingolipids (3- and 5-Methoxysphingosine), change of plasma metabolite, mh7 (male rats; day 7, relative to controls): 1.42; Stearic acid (C18:0), change of plasma metabolite, mh7 (male rats; day 7, relative to controls): 1.34; Threonic acid, change of plasma metabolite, mh7 (male rats; day 7, relative to controls): 3.06; 1,2-Dioleoyl-sn-glycero-3-phosphatidyl-L-serine, change of plasma metabolite, mh14 (male rats; day 14, relative to controls): 1.35; Behenic acid (C22:0), change of plasma metabolite, mh14 (male rats; day 14, relative to controls): 1.26; Cholesterol, change of plasma metabolite, mh14 (male rats; day 14, relative to controls): 1.46; Eicosapentanoic acid, change of plasma metabolite, mh14 (male rats; day 14, relative to controls): 1.4; Galactose, lipid fraction, change of plasma metabolite, mh14 (male rats; day 14, relative to controls): 1.37; Lignoceric acid (C24:0), change of plasma metabolite, mh14 (male rats; day 14, relative to controls): 1.16; Nervonic acid (C24:1), change of plasma metabolite, mh14 (male rats; day 14, relative to controls): 1.78; Phosphatidylcholine (C18:0/C18:2), change of plasma metabolite, mh14 (male rats; day 14, relative to controls): 1.11; Phosphatidylcholine (C18:0/C22:6), change of plasma metabolite, mh14 (male rats; day 14, relative to controls): 1.15; Sphingolipids (3- and 5-Methoxysphingosine), change of plasma metabolite, mh14 (male rats; day 14, relative to controls): 1.79; Stearic acid (C18:0), change of plasma metabolite, mh14 (male rats; day 14, relative to controls): 1.25; Threonic acid, change of plasma metabolite, mh14 (male rats; day 14, relative to controls): 2.98; 1,2-Dioleoyl-sn-glycero-3-phosphatidyl-L-serine, change of plasma metabolite, mh28 (male rats; day 28, relative to controls): 1.27; Behenic acid (C22:0), change of plasma metabolite, mh28 (male rats; day 28, relative to controls): 1.34; Cholesterol, change of plasma metabolite, mh28 (male rats; day 28, relative to controls): 1.04; Eicosapentanoic acid, change of plasma metabolite, mh28 (male rats; day 28, relative to controls): 1.4; Galactose, lipid fraction, change of plasma metabolite, mh28 (male rats; day 28, relative to controls): 1.51; Lignoceric acid (C24:0), change of plasma metabolite, mh28 (male rats; day 28, relative to controls): 1.21; Nervonic acid (C24:1), change of plasma metabolite, mh28 (male rats; day 28, relative to controls): 1.17; Phosphatidylcholine (C18:0/C18:2), change of plasma metabolite, mh28 (male rats; day 28, relative to controls): 1.10; Phosphatidylcholine (C18:0/C22:6), change of plasma metabolite, mh28 (male rats; day 28, relative to controls): 1.06; Sphingolipids (3- and 5-Methoxysphingosine), change of plasma metabolite, mh28 (male rats; day 28, relative to controls): 1.46; Stearic acid (C18:0), change of plasma metabolite, mh28 (male rats; day 28, relative to controls): 1.05; Threonic acid, change of plasma metabolite, mh28 (male rats; day 28, relative to controls): 3.48; 1,2-Dioleoyl-sn-glycero-3-phosphatidyl-L-serine, change of plasma metabolite, fh7 (female rats; day 7, relative to controls): 1.28; Arachidonic acid (C20:cis-[5,8,11,14]4), change of plasma metabolite, fh7 (female rats; day 7, relative to controls): 1.27; Behenic acid (C22:0), change of plasma metabolite, fh7 (female rats; day 7, relative to controls): 1.30; Cholesterol, change of plasma metabolite, fh7 (female rats; day 7, relative to controls): 1.23; Docosahexaenoic acid (C22:cis[4,7,10,13,16,19]6), change of plasma metabolite, fh7 (female rats; day 7, relative to controls): 1.79; Dodecanol, change of plasma metabolite, fh7 (female rats; day 7, relative to controls): 1.17; Eicosanoic acid (C20:0), change of plasma metabolite, fh7 (female rats; day 7, relative to controls): 1.13; Galactose, lipid fraction, change of plasma metabolite, fh7 (female rats; day 7, relative to controls): 1.10; Glycerol, lipid fraction, change of plasma metabolite, fh7 (female rats; day 7, relative to controls): 2.38; Glycerolphosphate, lipid fraction, change of plasma metabolite, fh7 (female rats; day 7, relative to controls): 1.27; Heptadecanoic acid (C17:0), change of plasma metabolite, fh7 (female rats; day 7, relative to controls): 1.32; Lignoceric acid (C24:0), change of plasma metabolite, fh7 (female rats; day 7, relative to controls): 1.39; Linoleic acid (C18:cis[9,12]2), change of plasma metabolite, fh7 (female rats; day 7, relative to controls): 2.11; Nervonic acid (C24:1), change of plasma metabolite, fh7 (female rats; day 7, relative to controls): 0.97; Palmitic acid (C16:0), change of plasma metabolite, fh7 (female rats; day 7, relative to controls): 1.59; Phosphatidylcholine (C18:0/C18:2), change of plasma metabolite, fh7 (female rats; day 7, relative to controls): 1.14; Sphingolipids (3- and 5-Methoxysphingosine), change of plasma metabolite, fh7 (female rats; day 7, relative to controls): 1.43; Stearic acid (C18:0), change of plasma metabolite, fh7 (female rats; day 7, relative to controls): 1.30; Threonic acid, change of plasma metabolite, fh7 (female rats; day 7, relative to controls): 3.67; Tricosanoic acid (C23:0), change of plasma metabolite, fh7 (female rats; day 7, relative to controls): 1.18; gamma-Linolenic acid (C18:cis[6,9,12]3), change of plasma metabolite, fh7 (female rats; day 7, relative to controls): 1.71; myo-Inositol-2-monophosphate, lipid fraction, change of plasma metabolite, fh7 (female rats; day 7, relative to controls): 1.81; 1,2-Dioleoyl-sn-glycero-3-phosphatidyl-L-serine, change of plasma metabolite, fh14 (female rats; day 14, relative to controls): 1.72; Arachidonic acid (C20:cis-[5,8,11,14]4), change of plasma metabolite, fh14 (female rats; day 14, relative to controls): 1.89; Behenic acid (C22:0), change of plasma metabolite, fh14 (female rats; day 14, relative to controls): 1.60; Cholesterol, change of plasma metabolite, fh14 (female rats; day 14, relative to controls): 1.64; Docosahexaenoic acid (C22:cis[4,7,10,13,16,19]6), change of plasma metabolite, fh14 (female rats; day 14, relative to controls): 2.49; Dodecanol, change of plasma metabolite, fh14 (female rats; day 14, relative to controls): 1.79; Eicosanoic acid (C20:0), change of plasma metabolite, fh14 (female rats; day 14, relative to controls): 2.76; Galactose, lipid fraction, change of plasma metabolite, fh14 (female rats; day 14, relative to controls): 1.28; Glycerol, lipid fraction, change of plasma metabolite, fh14 (female rats; day 14, relative to controls): 7.37; Glycerolphosphate, lipid fraction, change of plasma metabolite, fh14 (female rats; day 14, relative to controls): 1.52; Heptadecanoic acid (C17:0), change of plasma metabolite, fh14 (female rats; day 14, relative to controls): 1.89; Lignoceric acid (C24:0), change of plasma metabolite, fh14 (female rats; day 14, relative to controls): 1.60; Linoleic acid (C18:cis[9,12]2), change of plasma metabolite, fh14 (female rats; day 14, relative to controls): 5.23; Nervonic acid (C24:1), change of plasma metabolite, fh14 (female rats; day 14, relative to controls): 1.55; Palmitic acid (C16:0), change of plasma metabolite, fh14 (female rats; day 14, relative to controls): 3.46; Phosphatidylcholine (C18:0/C18:2), change of plasma metabolite, fh14 (female rats; day 14, relative to controls): 1.20; Sphingolipids (3- and 5-Methoxysphingosine), change of plasma metabolite, fh14 (female rats; day 14, relative to controls): 1.77; Stearic acid (C18:0), change of plasma metabolite, fh14 (female rats; day 14, relative to controls): 1.87; Threonic acid, change of plasma metabolite, fh14 (female rats; day 14, relative to controls): 3.63; Tricosanoic acid (C23:0), change of plasma metabolite, fh14 (female rats; day 14, relative to controls): 1.46; gamma-Linolenic acid (C18:cis[6,9,12]3), change of plasma metabolite, fh14 (female rats; day 14, relative to controls): 4.53; myo-Inositol-2-monophosphate, lipid fraction, change of plasma metabolite, fh14 (female rats; day 14, relative to controls): 3.61; 1,2-Dioleoyl-sn-glycero-3-phosphatidyl-L-serine, change of plasma metabolite, fh28 (female rats; day 28, relative to controls): 1.51; Arachidonic acid (C20:cis-[5,8,11,14]4), change of plasma metabolite, fh28 (female rats; day 28, relative to controls): 1.50; Behenic acid (C22:0), change of plasma metabolite, fh28 (female rats; day 28, relative to controls): 1.41; Cholesterol, change of plasma metabolite, fh28 (female rats; day 28, relative to controls): 1.62; Docosahexaenoic acid (C22:cis[4,7,10,13,16,19]6), change of plasma metabolite, fh28 (female rats; day 28, relative to controls): 1.57; Dodecanol, change of plasma metabolite, fh28 (female rats; day 28, relative to controls): 1.40; Eicosanoic acid (C20:0), change of plasma metabolite, fh28 (female rats; day 28, relative to controls): 1.98; Galactose, lipid fraction, change of plasma metabolite, fh28 (female rats; day 28, relative to controls): 1.40; Glycerol, lipid fraction, change of plasma metabolite, fh28 (female rats; day 28, relative to controls): 2.68; Glycerolphosphate, lipid fraction, change of plasma metabolite, fh28 (female rats; day 28, relative to controls): 1.43; Heptadecanoic acid (C17:0), change of plasma metabolite, fh28 (female rats; day 28, relative to controls): 1.54; Lignoceric acid (C24:0), change of plasma metabolite, fh28 (female rats; day 28, relative to controls): 1.75; Linoleic acid (C18:cis[9,12]2), change of plasma metabolite, fh28 (female rats; day 28, relative to controls): 2.69; Nervonic acid (C24:1), change of plasma metabolite, fh28 (female rats; day 28, relative to controls): 1.46; Palmitic acid (C16:0), change of plasma metabolite, fh28 (female rats; day 28, relative to controls): 1.86; Phosphatidylcholine (C18:0/C18:2), change of plasma metabolite, fh28 (female rats; day 28, relative to controls): 1.23; Sphingolipids (3- and 5-Methoxysphingosine), change of plasma metabolite, fh28 (female rats; day 28, relative to controls): 1.73; Stearic acid (C18:0), change of plasma metabolite, fh28 (female rats; day 28, relative to controls): 1.65; Threonic acid, change of plasma metabolite, fh28 (female rats; day 28, relative to controls): 4.57; Tricosanoic acid (C23:0), change of plasma metabolite, fh28 (female rats; day 28, relative to controls): 1.45; gamma-Linolenic acid (C18:cis[6,9,12]3), change of plasma metabolite, fh28 (female rats; day 28, relative to controls): 2.98; myo-Inositol-2-monophosphate, lipid fraction, change of plasma metabolite, fh28 (female rats; day 28, relative to controls): 1.93
